According to US20020107197A1, “Ligands for G protein coupled receptors and methods of using them” (priority 2000, published 2002):

Columns and labels:
Type in all cases: cell-based
GPR4 [1] = molecular target: T1, GPR4 (Homo sapiens, UniProt P46093); assay: Single-cell intracellular calcium assay (fura-2) in GPR4-GFP-transfected MCF10A cells; settings: PTX 100 ng/ml, 16 h pretreatment
T1 construct: were used to generate full length GPR4, which was digested with EcoRI and Xba I and cloned into the pBs3HA vector; expressed in transfected cells
T1 sequence (P46093 whole entry): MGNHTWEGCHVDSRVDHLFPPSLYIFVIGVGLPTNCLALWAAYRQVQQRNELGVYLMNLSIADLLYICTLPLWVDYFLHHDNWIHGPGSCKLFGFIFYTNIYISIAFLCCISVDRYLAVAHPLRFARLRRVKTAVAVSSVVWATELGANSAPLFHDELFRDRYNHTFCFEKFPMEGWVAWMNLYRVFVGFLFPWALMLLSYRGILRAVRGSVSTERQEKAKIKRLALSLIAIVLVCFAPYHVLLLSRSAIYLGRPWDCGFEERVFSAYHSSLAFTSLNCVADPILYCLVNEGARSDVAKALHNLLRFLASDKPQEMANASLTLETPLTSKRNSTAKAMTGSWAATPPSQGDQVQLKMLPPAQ
Description: Measurement of [Ca^2+]i, was performed as described previously in Xu et al. (2000) Nat Cell Biol 2, 261-267. Briefly, pGPR4-GFP-transfected MCF10A cells were grown in specialized glass-bottom dishes (Bioptech, Inc., Butler, Pa.) and loaded with fura-2 in HEPES buffered saline. Using a dual-wavelength spectrofluorometer (RFK-6002, Photon Technology Int'l, So. Brunswick, N.J.) coupled to an inverted fluorescence microscope (Olympus, IX-70, Lake Success, N.Y.), GFP-positive cells were identified using an excitation wavelength of 488 nm, a dichroic 505 nm long-pass filter and an emitter filter at bandpass of 535 nm (Chroma Technology, Brattleboro, Vt.). Measurements of [Ca^2+]i were performed on individual GPR4-GFP positive cells at excitation wavelengths of 340 and 380 nm and an emission wavelength of 510 nm. Conversion of the 340/380 ratio value into [Ca^2+]i in nM was estimated by comparing the cellular fluorescence ratio with ratios acquired using fura-2 (free acid) in buffers containing known Ca^2+ concentrations. [Ca^2+]i was then calculated as described by Grynkiewicz et al. (1985) J Biol Chem 260, 3440-3450. All calcium assays were performed in the presence of 1 mM EGTA in the assay buffers. Therefore, intracellular calcium release, not calcium influx, was analyzed.
To test whether GPR4 is a receptor for SPC, MCF10A cells were transiently transfected with pGPR4-GFP.
The GFP receptor fusion was used to identify positively transfected cells, and single-cell calcium assays were performed as described in our previous studies, such as Xu et al. (2000) Nat Cell Biol 2, 261-267.

GPR4 [2] = molecular target: T1, GPR4; assay: ERK MAP kinase activation (phospho-ERK Western blot) in GPR4-infected Swiss 3T3 cells; settings: PTX 100 ng/ml 12-16 h
Description: MAP kinases are key signaling intermediates of DNA synthesis and cell proliferation. Swiss 3T3 cells were infected with MSCV GPR4-ires-GFP or MSCV ires-GFP, and subsequently cells sorted by FACS for positive expression of GFP as described previously (Kabarowski et al. (2000) Proc Natl Acad Sci USA. 97, 12109-12114). Cells were plated in 6-well plates in DMEM containing 5% FBS, serum-starved overnight, and then treated lipids in DMEM for the indicated times. Cells were lysed on ice in RIPA buffer containing 50 mM Tris-HCl, pH 7.5, 1% Nonidet P-40, 0.5% deoxycholate,0.1% SDS, 150 mM NaCl, 2 mM EGTA, 25 mM sodium fluoride, 1 mM sodium orthovanadate, and 1× protease inhibitors (Sigma P8340). Lysates containing equal amounts of protein were separated on 10% SDS-polyacrylamide gels and transferred onto nitrocellulose membranes. Antibodies against phosphorylated ERK1/2 (Cell Signaling Technologies; Beverly, Mass.) were used to probe the membrane and the ECL system (Amersham) was used for detection. To normalize the amounts of protein loaded in each lane, membranes were stripped and re-probed with antibodies against total ERK (Cell Signaling Technologies). In some experiments, cells were pretreated with 100 ng/ml PTX for 12-16 h prior to SPC and LPC stimulation.

OGR1 = molecular target: T2, OGR1 (Homo sapiens, UniProt Q15743); assay: ERK activation in OGR1-infected Swiss 3T3 cells
T2 construct: expressed in transfected cells
T2 sequence (Q15743 whole entry, species assumed): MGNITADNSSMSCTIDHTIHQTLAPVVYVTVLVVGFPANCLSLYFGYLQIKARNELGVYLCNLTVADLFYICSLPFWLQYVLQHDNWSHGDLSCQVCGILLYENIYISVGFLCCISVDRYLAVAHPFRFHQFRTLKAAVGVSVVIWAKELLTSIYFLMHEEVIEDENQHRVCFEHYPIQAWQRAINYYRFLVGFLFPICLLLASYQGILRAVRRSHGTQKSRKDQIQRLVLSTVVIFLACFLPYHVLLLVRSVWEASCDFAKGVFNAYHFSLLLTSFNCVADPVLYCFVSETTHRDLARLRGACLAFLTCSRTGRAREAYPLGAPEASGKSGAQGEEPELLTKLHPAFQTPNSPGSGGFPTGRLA

GPR4 [3] = molecular target: T1, GPR4; assay: SRE luciferase reporter in GPR4-transfected HEK293 cells; settings: PTX 100 ng/ml 16 h; C3-exoenzyme co-transfected
Description: The serum-response element (SRE) reporter system is a sensitive assay for receptors of lipid factors (An et al. (1998) J Biol Chem 273, 7906-7910; An et al. (1999) Mol Pharmacol 55, 787-794). The SRE reporter system used herein (pSRE-Luc) was a gift from Dr. Songzhu An (UCSF), or may be purchased from Stratagene (La Jolla, Calif.). Both systems give identical results. HEK293 and HEK293GPR4 cells were cultured in RPMI1640 with 10% FBS in 10 cm dishes to ˜85% confluence. To the cells in each dish, pSRE-Luc (10 μg) was transfected in the presence of 60 μl LipofectAMINE reagent. Cells were seeded in 96-well plates 16 h after transfection, incubated for another 24 h in RPMI1640 with 10% FBS, and starved in serum-free medium for 16 h. SPC (dissolved in PBS to 10 mM) and other lipids (LPCs were dissolved in 70% ethanol. Other lipids were dissolved in PBS, 70-95% ethanol, or 100% MeOH) were diluted in serum free RPMI 1640 and added to the cells, followed by a 10 h incubation. Luciferase activity was measured in Microlite™ 1 plates (DYNEX Technologies, Inc., Virginia) using 60 μl of cell lysate and 20 μl luciferase substrate. PTX (100 ng/ml) was added during the 16 h serum starvation period and pcDNA1-C3 (encoding the C3-exoenzyme, 2 μg) was co-transfected with pSRE-Luc (10 μg). All experiments were performed in quadruplicate and were repeated at least three times. The Student's t test was performed using the GraphPad Instat software (San Diego, Calif.). p<0.05 was considered to be statistically significant.

GPR4 [4] = molecular target: T1, GPR4; assay: DNA synthesis ([3H]thymidine incorporation) in GPR4-infected Swiss 3T3 cells; settings: PTX 100 ng/ml for 16 h; GFP- and GPR4-GFP expressing cells
Description: The effect of SPC and LPC on DNA synthesis was measured using [^3H] thymidine incorporation. Briefly, GPR4-ires-GFP- and GFP-Swiss 3T3 cells were plated in 96-well plates, serum-starved for 24 h, and treated with SPC, LPC, or other lipids in serum-free DMEM for 24 h. Cells were incubated with 0.75 μCi/ml [^3H]thymidine in serum-free DMEM for the last 18 h. Cells were harvested onto filter papers presoaked in 1% polyethylenimine using the automated cell harvester HARVEST 96. Incorporated [^3H]thymidine was counted in a 1450 Microbeta Trilux Liquid Scintillation and Luminescence Counter (Perkin-Elmer-Wallac, Inc.).

pertussis toxin [PTX]
effect of PTX on [Ca2+]i response to SPC and LPC (GPR4 [1]): completely abolished
PTX sensitivity of SPC-induced ERK activation (GPR4 [2]): sensitive to PTX
PTX sensitivity of SPC-induced ERK activation (OGR1): PTX-insensitive
inhibition of SRE-reporter activation by SPC and 16:0-LPC (GPR4 [3]): partially inhibited SRE-reporter activation
effect of PTX on DNA synthesis stimulated by SPC (GPR4 [4]): inhibited by PTX
